# Test results taken from patent US12012415B2, “Compositions and methods for the diagnosis, treatment and prevention of neoplastic and neurological disorders” (AscentGene, Inc., priority 2018, dated 2024).
# Tests used:
# SF295 xenograft tumor = assay: SF295 GBM xenograft mice model; assay type: in vivo; settings: 150 μg/mice IP every other day, 28 days
# Method: Female SHO mice (Crl:SHO-Prkdescid Hr/6-8 weeks) were purchased from Charles River. Human glioblastoma cell line SF295 cells were injected subcutaneously on the right flank of 8 week female SHO mice (3×10^6/per mice), tumor appears around one week (day 7) post inoculation. When the tumor size reaches the volume of 100 mm^3, total 12 mice were randomly divided to two groups (Treatment & Vehicle). 100 μl of 1.5 μg/μl of AG-1601 (total 150 μg/mice) was injected via IP to each mouse in the Treatment Group every other day for total 28 days; the same volume of H2O was injected to the mouse in the Vehicle Group. Tumor size measurement was evaluated using the digital calipers and tumor size was calculated using the following formula [mm^3=((L+W)/4)×((L+W)/4)×((L+W)/4)×4/3×3.14159], data are platted as relative mean tumor volume+/−standard error of the mean.
# [1] = tested on: hippocampal synaptic plasticity in the CA1 region; assay: In vivo electrophysiology, hippocampal CA1 LTP and DEP, Aβ1-42 AD rat model; set-up: species or system rats; settings: last 20 min, vs Aβ1-42 group
# Method: Aβ1-42 (Sigma-Aldrich, St. Louis, MO, USA;) was dissolved in double-distilled water at the concentration of 5 μg/μl, and incubated at 37° C. for one week before surgery. The rats were randomly divided into four groups as Sham (n=8), Sham+AG-1601 (n=8), Aβ1-42 (n=8) and Aβ1-42+AG-1601 (n=8). The Alzheimer's disease rat models were established by intracerebroventricular (i.c.v.) injection of Aβ1-42 aggregates. The animals were anesthetized with intraperitoneal injection of pentobarbital sodium (50 mg/kg) and placed in a stereotaxic apparatus (Narishige, Japan). The head skin of the rat was opened and two small holes were drilled on both sides of skull following the coordinates: 0.8 mm posterior to bregma, +1.4 mm lateral to sagittal suture, 4.0 mm beneath the surface of brain. Aβ1-42 (2.0 μl per side) was injected bilaterally into the lateral ventricles through micro-syringe. The needle was taken out after 5 minutes of the injection to ensure the aggregates were infused completely. Rats in the Sham group underwent the same operational process, but same volumes of double-distilled water were injected instead of Aβ1-42. After surgery, all rats were injected with penicillin (100,000 U) in the hindquarter muscle to prevent infection. The animals of Sham+AG-1601 and Aβ1-42+AG-1601 groups were intravenous injection with AG-1601 (1 mg/kg), while the same volume vehicle was implemented for the other groups every day for 14 days after one week of the postoperative recovery. The rats were placed in the stereotaxic apparatus after intraperitoneal injection of 30% urethane (0.4 g/kg Sigma-Aldrich, St. Louis, MO, USA). According to our former protocols (Gao et al., 2015) the appropriate incision on the scalp was cut to expose the skull and a small hole was drilled. […] The depth of both electrodes was optimized to acquire the proper amplitude of evoked potentials. […] A test stimulus was given every 30 s to record for 20 min as baseline. Then LTP was induced by TBS (30 trains of 12 pulses at 200 Hz) and recorded every 60s for 60 min. […]
# [2] = tested on: dendritic spines of the CA1 pyramidal cells; assay: Golgi-Cox staining of dendritic spines, Aβ1-42 AD rat model; assay type: in vivo, rats; settings: vs Aβ1-42 group
# Method: Aβ1-42 (Sigma-Aldrich, St. Louis, MO, USA;) was dissolved in double-distilled water at the concentration of 5 μg/μl, and incubated at 37° C. for one week before surgery. The rats were randomly divided into four groups as Sham (n=8), Sham+AG-1601 (n=8), Aβ1-42 (n=8) and Aβ1-42+AG-1601 (n=8). The Alzheimer's disease rat models were established by intracerebroventricular (i.c.v.) injection of Aβ1-42 aggregates. The animals were anesthetized with intraperitoneal injection of pentobarbital sodium (50 mg/kg) and placed in a stereotaxic apparatus (Narishige, Japan). The head skin of the rat was opened and two small holes were drilled on both sides of skull following the coordinates: 0.8 mm posterior to bregma, +1.4 mm lateral to sagittal suture, 4.0 mm beneath the surface of brain. Aβ1-42 (2.0 μl per side) was injected bilaterally into the lateral ventricles through micro-syringe. The needle was taken out after 5 minutes of the injection to ensure the aggregates were infused completely. […]
# Golgi-Cox staining method that performed according to the previously described protocol was used to determine the density of apical dendritic spines of the CA1 pyramidal cells in this study (Zhang et al., 2016). […] Six neurons in the CA1 region of hippocampus per animal were analyzed. The average dendritic spine density per 10 μm of dendritic length was calculated for each animal.
smiles,measurement,setting,value
"C=CC1=C(C)c2cc3[nH]c(cc4nc(cc5[nH]c(cc1n2)c(C)c5C=C)C(C)=C4CCC(=O)O)c(CCC(=O)NCCCc1ccccc1)c3C [AG-1601, 3-(2,8,13,18-tetramethyl-3-(3-oxo-3-((3-phenylpropyl)amino)propyl)-12,17-divinylporphyrin-7-yl)propanoic acid]",efficacy on SF295 xenograft tumor,SF295 xenograft tumor,shows efficacy
same,fEPSP slopes of DEP,[1],reversed effectively
same,fEPSP slopes of LTP,[1],significantly recovered
same,fEPSP slopes of LTP,[1]; listed as AG-1061,augmented significantly
same,density of dendritic spines in the CA1 region,[2],marked reversal of the dendritic spine loss
